From ChEMBL document CHEMBL1770059, “Identification of chemicals to inhibit the kinase activity of leucine-rich repeat kinase 2 (LRRK2), a Parkinson's disease-associated protein” (Bioorg Med Chem Lett, 2011) come the findings set out here.

The structures appear in SMILES notation. Activity calls are given as the source filed them. The calls are words filed in the database; no cut-off is given here.

Assay [1] has as its target Casein kinase I isoform alpha (Homo sapiens) (UniProt P48729). In words: Inhibition of CK1 assessed as residual activity of enzyme at 25 uM.
For assay [2], the system named is Leucine-rich repeat serine/threonine-protein kinase 2 (Homo sapiens), Q5S007 [G2019S]. In words: Inhibition of purified N-terminal GST-tagged LRRK2 G2019S mutant autophosphorylation activity using myelin basic protein as substrate at 25 uM.
For assay [3], the target named is Mitogen-activated protein kinase kinase kinase 9 (Homo sapiens) (UniProt P80192). In words: Inhibition of MLK1 assessed as residual activity of enzyme at 25 uM.
The target in assay [4] is Ribosomal protein S6 kinase beta-1 (Homo sapiens) (UniProt P23443). In words: Inhibition of p70S6K assessed as residual activity of enzyme at 25 uM.
Assay [5] concerns the target Casein kinase I isoform alpha (Homo sapiens) (UniProt P48729). In words: Inhibition of CK1 assessed as residual activity of enzyme at 10 uM.
Assay [6] deals with Ribosomal protein S6 kinase beta-1 (Homo sapiens) (UniProt P23443). In words: Inhibition of p70S6K assessed as residual activity of enzyme at 10 uM.
The target of assay [7] is T1, Serine/threonine-protein kinase TAO3 (Homo sapiens) (UniProt Q9H2K8).
T1 sequence (whole entry): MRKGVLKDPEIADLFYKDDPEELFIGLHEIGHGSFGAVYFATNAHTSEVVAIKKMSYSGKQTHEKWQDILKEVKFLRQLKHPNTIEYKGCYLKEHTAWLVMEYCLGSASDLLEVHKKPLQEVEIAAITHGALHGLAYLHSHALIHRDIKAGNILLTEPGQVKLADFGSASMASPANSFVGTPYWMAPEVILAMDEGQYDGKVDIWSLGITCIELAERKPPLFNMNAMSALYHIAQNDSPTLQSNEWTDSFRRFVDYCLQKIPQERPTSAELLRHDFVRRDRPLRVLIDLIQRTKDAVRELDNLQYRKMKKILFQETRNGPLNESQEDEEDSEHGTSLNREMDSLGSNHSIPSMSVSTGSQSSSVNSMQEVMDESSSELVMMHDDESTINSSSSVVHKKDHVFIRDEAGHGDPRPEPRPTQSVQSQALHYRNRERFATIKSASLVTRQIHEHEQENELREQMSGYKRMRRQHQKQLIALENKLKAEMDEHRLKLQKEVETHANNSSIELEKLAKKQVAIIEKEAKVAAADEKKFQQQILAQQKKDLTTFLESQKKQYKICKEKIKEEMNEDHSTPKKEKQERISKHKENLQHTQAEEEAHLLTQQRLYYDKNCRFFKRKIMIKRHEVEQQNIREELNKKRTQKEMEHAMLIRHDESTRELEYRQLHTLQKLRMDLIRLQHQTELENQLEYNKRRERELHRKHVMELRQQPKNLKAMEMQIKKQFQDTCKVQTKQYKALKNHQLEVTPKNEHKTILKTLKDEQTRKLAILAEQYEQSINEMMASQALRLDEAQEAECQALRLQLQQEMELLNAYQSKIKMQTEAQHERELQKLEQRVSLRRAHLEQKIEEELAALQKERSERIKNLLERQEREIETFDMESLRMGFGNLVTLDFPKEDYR
In words: Inhibition of TAO3 assessed as residual activity of enzyme at 25 uM.

Assay [8] deals with T2, Serine/threonine-protein kinase TAO2 (Homo sapiens) (UniProt Q9UL54).
T2 sequence (whole entry): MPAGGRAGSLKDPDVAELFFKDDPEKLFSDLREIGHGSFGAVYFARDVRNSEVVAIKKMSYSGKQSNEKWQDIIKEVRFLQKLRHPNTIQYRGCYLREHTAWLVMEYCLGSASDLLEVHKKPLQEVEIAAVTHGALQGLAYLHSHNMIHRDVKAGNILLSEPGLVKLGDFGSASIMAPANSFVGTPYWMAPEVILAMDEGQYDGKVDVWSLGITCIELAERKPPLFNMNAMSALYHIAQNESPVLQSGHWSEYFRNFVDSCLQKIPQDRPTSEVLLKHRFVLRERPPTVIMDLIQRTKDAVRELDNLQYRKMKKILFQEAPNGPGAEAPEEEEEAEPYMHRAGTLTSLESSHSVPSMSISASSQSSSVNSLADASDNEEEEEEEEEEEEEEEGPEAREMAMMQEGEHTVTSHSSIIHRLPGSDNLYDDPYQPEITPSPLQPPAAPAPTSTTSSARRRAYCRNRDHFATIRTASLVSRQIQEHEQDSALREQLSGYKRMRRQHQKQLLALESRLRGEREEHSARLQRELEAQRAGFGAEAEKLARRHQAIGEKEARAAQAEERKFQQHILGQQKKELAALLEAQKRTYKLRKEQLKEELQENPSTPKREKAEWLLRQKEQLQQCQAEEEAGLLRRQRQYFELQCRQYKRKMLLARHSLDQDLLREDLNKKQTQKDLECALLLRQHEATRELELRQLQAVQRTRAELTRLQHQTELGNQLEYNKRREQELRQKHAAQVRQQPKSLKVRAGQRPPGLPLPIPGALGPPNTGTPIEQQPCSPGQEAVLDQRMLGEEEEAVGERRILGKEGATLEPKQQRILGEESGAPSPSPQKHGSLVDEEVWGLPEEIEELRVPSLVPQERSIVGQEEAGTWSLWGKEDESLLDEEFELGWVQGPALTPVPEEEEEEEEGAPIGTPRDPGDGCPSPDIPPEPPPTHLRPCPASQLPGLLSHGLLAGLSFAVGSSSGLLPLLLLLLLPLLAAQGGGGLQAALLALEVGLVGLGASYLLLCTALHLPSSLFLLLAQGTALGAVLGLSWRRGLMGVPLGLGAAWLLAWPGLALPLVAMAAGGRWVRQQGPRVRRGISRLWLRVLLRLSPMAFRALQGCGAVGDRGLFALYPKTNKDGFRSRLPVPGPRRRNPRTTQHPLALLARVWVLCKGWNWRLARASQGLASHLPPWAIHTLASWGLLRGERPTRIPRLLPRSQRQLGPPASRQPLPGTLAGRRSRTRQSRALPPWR
In words: Inhibition of TAO2 assessed as residual activity of enzyme at 25 uM.

Assay [9] concerns the target Glycogen synthase kinase-3 beta (Homo sapiens) (UniProt P49841). In words: Inhibition of GSK3-beta assessed as residual activity of enzyme at 10 uM.

Sequence of Casein kinase I isoform alpha (Homo sapiens) (P48729 2-337 limits assumed): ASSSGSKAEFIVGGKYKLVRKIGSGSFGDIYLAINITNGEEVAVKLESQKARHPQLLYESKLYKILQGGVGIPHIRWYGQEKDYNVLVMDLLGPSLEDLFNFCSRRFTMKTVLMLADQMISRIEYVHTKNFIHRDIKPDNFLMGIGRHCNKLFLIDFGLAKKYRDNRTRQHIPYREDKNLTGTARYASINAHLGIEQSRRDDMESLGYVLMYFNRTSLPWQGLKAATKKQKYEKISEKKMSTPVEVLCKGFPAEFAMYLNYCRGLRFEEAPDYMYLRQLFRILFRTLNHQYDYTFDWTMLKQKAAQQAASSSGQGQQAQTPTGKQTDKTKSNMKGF
Sequence of Ribosomal protein S6 kinase beta-1 (Homo sapiens) (P23443 whole entry, looked up, canonical isoform): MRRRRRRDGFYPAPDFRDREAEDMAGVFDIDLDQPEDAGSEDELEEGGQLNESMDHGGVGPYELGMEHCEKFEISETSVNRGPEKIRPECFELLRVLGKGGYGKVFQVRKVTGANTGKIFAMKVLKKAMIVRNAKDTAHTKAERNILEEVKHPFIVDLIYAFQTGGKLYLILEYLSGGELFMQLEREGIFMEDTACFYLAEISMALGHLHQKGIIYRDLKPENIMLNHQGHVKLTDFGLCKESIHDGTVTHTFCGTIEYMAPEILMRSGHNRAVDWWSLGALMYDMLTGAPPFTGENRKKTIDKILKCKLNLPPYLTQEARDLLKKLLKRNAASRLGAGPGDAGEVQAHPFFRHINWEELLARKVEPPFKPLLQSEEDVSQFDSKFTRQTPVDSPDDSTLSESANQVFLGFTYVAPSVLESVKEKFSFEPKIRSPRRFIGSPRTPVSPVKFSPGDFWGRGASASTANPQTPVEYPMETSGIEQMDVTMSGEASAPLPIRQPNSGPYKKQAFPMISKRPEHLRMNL
Sequence of Mitogen-activated protein kinase kinase kinase 9 (Homo sapiens) (P80192 whole entry, looked up): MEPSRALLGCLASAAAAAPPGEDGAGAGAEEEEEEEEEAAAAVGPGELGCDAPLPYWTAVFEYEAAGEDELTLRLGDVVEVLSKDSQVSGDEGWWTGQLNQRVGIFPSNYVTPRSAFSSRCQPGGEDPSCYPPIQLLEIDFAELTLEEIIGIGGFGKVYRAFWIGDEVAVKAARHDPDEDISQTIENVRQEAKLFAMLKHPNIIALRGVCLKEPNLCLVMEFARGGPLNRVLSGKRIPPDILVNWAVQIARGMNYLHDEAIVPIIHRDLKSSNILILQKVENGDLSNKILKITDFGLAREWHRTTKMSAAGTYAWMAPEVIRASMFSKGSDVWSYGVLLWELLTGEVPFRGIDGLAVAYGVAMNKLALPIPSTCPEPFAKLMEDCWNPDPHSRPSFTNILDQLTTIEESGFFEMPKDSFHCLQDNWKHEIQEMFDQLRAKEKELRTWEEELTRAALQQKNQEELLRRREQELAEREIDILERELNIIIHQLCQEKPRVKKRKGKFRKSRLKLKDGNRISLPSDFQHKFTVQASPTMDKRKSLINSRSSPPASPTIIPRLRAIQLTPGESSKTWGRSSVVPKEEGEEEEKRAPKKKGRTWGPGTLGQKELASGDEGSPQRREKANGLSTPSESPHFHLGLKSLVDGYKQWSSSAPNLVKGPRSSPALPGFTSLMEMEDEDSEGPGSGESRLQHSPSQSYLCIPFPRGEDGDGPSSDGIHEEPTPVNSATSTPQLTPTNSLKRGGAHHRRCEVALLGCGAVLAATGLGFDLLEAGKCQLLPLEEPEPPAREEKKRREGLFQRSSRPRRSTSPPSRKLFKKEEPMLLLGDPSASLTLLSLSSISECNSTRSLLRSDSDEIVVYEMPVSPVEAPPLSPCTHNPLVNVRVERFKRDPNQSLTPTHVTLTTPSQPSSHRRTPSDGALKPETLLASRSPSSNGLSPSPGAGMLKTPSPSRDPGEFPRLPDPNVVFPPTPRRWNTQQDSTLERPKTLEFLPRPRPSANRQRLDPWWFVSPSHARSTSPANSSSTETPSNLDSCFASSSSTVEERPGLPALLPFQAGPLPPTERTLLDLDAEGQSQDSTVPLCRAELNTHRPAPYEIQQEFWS
Sequence of Glycogen synthase kinase-3 beta (Homo sapiens) (P49841 whole entry, looked up): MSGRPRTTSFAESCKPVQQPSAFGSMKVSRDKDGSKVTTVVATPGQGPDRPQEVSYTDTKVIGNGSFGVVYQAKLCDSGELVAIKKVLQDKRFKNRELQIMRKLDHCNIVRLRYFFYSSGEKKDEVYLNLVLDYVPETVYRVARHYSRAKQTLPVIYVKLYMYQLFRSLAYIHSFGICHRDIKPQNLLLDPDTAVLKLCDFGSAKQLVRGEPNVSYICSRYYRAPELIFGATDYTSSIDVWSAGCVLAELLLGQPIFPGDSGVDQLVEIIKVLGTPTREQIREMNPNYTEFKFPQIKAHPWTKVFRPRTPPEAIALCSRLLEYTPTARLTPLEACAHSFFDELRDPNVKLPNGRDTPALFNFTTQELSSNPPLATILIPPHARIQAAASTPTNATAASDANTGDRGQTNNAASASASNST
Sequence of Leucine-rich repeat serine/threonine-protein kinase 2 (Homo sapiens), Q5S007 [G2019S] (Q5S007 whole entry G2019S): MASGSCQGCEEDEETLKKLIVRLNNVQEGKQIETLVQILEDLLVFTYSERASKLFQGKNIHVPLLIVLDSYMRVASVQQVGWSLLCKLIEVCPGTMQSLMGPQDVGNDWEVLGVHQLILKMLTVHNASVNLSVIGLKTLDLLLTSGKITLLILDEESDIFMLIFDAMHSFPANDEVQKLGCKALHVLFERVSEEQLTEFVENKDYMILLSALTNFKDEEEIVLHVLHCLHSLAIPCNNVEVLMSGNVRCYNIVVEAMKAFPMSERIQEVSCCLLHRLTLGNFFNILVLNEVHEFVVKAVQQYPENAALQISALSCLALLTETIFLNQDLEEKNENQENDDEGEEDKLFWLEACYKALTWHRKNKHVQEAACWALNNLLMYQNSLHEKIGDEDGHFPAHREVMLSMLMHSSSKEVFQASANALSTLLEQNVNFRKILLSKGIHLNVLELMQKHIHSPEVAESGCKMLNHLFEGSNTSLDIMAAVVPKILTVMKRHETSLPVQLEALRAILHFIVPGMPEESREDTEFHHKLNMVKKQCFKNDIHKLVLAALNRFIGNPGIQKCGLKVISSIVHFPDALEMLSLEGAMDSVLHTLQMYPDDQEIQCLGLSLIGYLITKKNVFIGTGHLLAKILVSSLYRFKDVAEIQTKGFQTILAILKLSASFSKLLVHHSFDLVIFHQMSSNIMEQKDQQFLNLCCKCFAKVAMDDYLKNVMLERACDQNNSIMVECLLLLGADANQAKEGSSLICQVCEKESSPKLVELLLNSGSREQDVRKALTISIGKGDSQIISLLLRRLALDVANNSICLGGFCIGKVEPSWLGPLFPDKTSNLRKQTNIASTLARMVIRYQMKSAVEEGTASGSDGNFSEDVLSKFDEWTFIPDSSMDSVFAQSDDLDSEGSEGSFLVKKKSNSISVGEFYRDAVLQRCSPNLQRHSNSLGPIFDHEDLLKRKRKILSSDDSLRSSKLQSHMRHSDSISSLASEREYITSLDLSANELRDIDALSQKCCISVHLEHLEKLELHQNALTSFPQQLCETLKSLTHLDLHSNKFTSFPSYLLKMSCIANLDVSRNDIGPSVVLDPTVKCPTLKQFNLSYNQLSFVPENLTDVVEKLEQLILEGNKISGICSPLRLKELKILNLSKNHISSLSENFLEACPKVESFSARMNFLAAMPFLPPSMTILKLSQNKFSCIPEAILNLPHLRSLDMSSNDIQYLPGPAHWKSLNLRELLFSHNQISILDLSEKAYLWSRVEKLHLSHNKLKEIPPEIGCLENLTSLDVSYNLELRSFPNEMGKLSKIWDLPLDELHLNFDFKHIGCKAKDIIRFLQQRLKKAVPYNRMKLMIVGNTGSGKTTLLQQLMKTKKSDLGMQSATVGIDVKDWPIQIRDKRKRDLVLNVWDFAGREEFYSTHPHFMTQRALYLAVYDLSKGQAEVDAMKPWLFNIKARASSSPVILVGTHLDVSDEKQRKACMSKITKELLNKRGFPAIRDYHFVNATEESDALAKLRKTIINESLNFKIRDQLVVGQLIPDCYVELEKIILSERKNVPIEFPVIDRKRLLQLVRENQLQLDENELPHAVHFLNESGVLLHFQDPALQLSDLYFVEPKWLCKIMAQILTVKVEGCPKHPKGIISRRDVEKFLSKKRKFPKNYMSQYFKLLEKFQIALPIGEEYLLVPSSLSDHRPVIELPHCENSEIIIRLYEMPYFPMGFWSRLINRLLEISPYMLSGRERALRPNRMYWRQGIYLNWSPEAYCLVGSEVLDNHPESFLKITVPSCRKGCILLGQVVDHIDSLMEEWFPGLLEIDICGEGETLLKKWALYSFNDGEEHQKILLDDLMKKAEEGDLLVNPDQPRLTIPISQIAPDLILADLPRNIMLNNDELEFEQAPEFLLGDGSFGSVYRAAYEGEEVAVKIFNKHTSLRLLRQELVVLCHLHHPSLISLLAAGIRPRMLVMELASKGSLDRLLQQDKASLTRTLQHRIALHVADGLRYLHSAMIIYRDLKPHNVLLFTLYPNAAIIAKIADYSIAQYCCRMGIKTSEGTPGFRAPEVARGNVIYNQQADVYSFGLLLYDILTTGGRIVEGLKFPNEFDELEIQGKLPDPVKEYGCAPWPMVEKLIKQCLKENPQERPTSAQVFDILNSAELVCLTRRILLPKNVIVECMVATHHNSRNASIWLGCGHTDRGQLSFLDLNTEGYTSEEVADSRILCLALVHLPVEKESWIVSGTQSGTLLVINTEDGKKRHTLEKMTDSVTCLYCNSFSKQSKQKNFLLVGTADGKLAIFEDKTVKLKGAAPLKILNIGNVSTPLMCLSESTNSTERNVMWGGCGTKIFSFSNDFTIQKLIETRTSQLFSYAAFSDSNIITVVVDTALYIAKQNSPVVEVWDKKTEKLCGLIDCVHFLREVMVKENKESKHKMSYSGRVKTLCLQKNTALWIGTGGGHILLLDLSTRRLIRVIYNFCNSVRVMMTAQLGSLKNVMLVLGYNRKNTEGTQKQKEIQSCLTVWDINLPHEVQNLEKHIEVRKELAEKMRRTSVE

Take `Cc1cc(N/N=C/c2ccncc2)nc2ccccc12`: the Activity was found to be 59% in assay [1]; 12% in [3]; 50% in assay [4]; 77% in assay [5]; 67% in assay [6]; 81% in assay [7]. Further, the values for the Activity in [8] and in assay [9] were 84% and 99%, respectively. Further, the inhibition result in assay [2] is “Active”.
